Legend:
Assay type in all cases: functional
[1] = tested on: Radical scavenging activity; assay: Antioxidant activity against assessed as DPPH radical scavenging activity at 10 '-4 M after 30 min by spectrophotometry relative to control
[2] = tested on: Radical scavenging activity; assay: Antioxidant activity against assessed as DPPH radical scavenging activity at 10 '-3 M after 30 min by spectrophotometry relative to control
[3] = Antioxidant activity against assessed as superoxide scavenging activity measuring reduction of cytochrome C at 10 '-4 M by spectrophotometry relative to control; set-up: scale not given: the % may be the effect or the level left
[4] = Antioxidant activity against assessed as superoxide scavenging activity measuring reduction of cytochrome C at 10 '-3 M by spectrophotometry relative to control; set-up: scale not given: the % may be the effect or the level left
[5] = tested on: Radical scavenging activity; assay: Antioxidant activity against assessed as DPPH radical scavenging activity at 1.25 x 10 '-4 M after 30 min by spectrophotometry relative to control
[6] = tested on: Radical scavenging activity; assay: Antioxidant activity against assessed as DPPH radical scavenging activity at 2 x 10 '-4 M after 30 min by spectrophotometry relative to control

Row | Structure (SMILES) | Activity [1] | Activity [2] | Activity [3] | Activity [4] | Activity [5] | Activity [6]
1 | O=C1S/C(=C\c2sc(Cl)nc2Cl)C(=O)N1Cc1ccccc1 | 47% | 12% | 352% | 154% |  | 
2 | O=C1S/C(=C\c2sc(SCc3ccccc3)nc2Cl)C(=O)N1Cc1ccc(F)cc1 | 67% | 21% | 98% | 52% |  | 
3 | Cc1cc(C(C)(C)C)c(O)c(C(C)(C)C)c1 |  | 17% |  |  | 52% | 37%
4 | O=C1S/C(=C\c2sc(SCc3ccccc3)nc2Cl)C(=O)N1Cc1ccc(Br)cc1 | 74% | 19% | 88% | 35% |  | 
5 | O=C1S/C(=C\c2sc(SCc3ccccc3)nc2Cl)C(=O)N1Cc1ccccc1 | 77% | 26% | 86% | 50% |  | 
6 | O=C1S/C(=C\c2sc(SCc3ccccc3)nc2Cl)C(=O)N1Cc1ccc(Cl)cc1Cl | 58% | 20% | 101% | 16% |  | 
7 | O=C1S/C(=C\c2sc(Cl)nc2Cl)C(=O)N1Cc1ccc([N+](=O)[O-])cc1 | 52% | 9% | 114% | 339% |  | 
8 | O=C1S/C(=C\c2sc(SCc3ccccc3)nc2Cl)C(=O)N1Cc1ccc([N+](=O)[O-])cc1 | 43% | 14% | 96% | 11% |  | 
9 | O=C1S/C(=C\c2sc(Cl)nc2Cl)C(=O)N1Cc1ccc(Br)cc1 | 28% | 9% | 127% | 124% |  | 
10 | O=C1S/C(=C\c2sc(Cl)nc2Cl)C(=O)N1Cc1ccc(F)cc1 | 28% | 11% | 129% | 73% |  | 
11 | O=C1S/C(=C\c2sc(Cl)nc2Cl)C(=O)N1Cc1ccc(Cl)cc1 | 73% | 57% | 32% | 9% |  | 
12 | O=C1S/C(=C\c2sc(SCc3ccccc3)nc2Cl)C(=O)N1Cc1ccc(Cl)cc1 | 72% | 20% | 91% | 31% |  | 
13 | O=C1S/C(=C\c2sc(Cl)nc2Cl)C(=O)N1Cc1ccc(Cl)cc1Cl | 12% | 9% | 110% | 99% |  | 

— ChEMBL document CHEMBL3045010, “Radical scavenging capacities of some thiazolylthiazolidine-2,4-dione derivatives” (Med Chem Res, 2009)
